Reference: patent publication US7566712B2, “Biaryl piperazinyl-pyridine analogues” (Neurogen Corporation, priority 2003, dated 2009)

biological target: T1, human capsaicin receptor (Homo sapiens, UniProt Q8NER1); test: Calcium mobilization assay, determination of antagonist activity (Example 6); assay type: cell-based; settings: determined as described in Example 6 (calcium mobilization, antagonist activity); Table II
T1 construct: pBK-CMV expression construct encoding the full length human capsaicin receptor; expressed in transfected cells
T1 sequence (Q8NER1 whole entry): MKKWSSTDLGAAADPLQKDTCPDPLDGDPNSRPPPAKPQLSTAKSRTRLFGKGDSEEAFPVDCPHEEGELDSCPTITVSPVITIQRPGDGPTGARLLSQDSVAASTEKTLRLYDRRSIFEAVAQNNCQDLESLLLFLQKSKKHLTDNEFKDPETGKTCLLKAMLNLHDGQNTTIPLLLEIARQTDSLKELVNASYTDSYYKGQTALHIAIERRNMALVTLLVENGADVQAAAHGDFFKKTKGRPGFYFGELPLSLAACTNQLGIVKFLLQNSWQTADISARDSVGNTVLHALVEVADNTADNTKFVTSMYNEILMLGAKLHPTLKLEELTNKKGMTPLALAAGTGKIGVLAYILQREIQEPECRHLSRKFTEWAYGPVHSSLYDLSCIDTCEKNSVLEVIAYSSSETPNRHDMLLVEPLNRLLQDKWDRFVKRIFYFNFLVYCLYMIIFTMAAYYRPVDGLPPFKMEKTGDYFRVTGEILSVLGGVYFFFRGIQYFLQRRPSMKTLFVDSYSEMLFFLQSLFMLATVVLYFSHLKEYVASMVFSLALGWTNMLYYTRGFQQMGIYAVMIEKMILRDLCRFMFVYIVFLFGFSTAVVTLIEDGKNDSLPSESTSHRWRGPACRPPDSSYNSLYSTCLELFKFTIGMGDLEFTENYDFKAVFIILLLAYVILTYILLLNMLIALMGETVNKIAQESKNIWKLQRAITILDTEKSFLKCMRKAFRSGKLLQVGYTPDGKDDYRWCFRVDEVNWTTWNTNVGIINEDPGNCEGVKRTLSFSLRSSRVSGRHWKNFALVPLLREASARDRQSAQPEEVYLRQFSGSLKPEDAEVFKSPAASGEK
Outline: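 HEK293 clonal lines stably expressing full-length human capsaicin receptor, loaded with Fluo-3 AM in KRH buffer pH 7.4, 1–2 h at 37 °C. Compounds (1–5 μM final) preincubated 0.5–6 h at room temperature, then capsaicin at its EC50 added. FLIPR/Fluoroskan calcium signal; IC50 as 50% decrease of capsaicin response.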

IC50, ≤ 1000 nM:
CC1CCCN1c1nc(-c2ccc(F)c(F)c2)cc(N2CCN(c3ncccc3C(F)(F)F)CC2)n1 (centres unmarked) [Example 704, 4-(3,4-difluorophenyl)-2-(2-methylpyrrolidin-1-yl)-6-{4-[3-(trifluoromethyl)pyridin-2-yl]piperazin-1-yl}pyrimidine]
CC1CCCN1c1nc(-c2ccc(F)cc2)cc(N2CCN(c3ncccc3C(F)(F)F)CC2)n1 (centres unmarked) [Example 705, 4-(4-fluorophenyl)-2-(2-methylpyrrolidin-1-yl)-6-{4-[3-(trifluoromethyl)pyridin-2-yl]piperazin-1-yl}pyrimidine]
Cc1cccc(-c2cc(N3CCN(c4ncccc4C(F)(F)F)CC3)nc(N3CCCC3C)n2)c1 (centres unmarked) [Example 706, 4-(3-methylphenyl)-2-(2-methylpyrrolidin-1-yl)-6-{4-[3-(trifluoromethyl)pyridin-2-yl]piperazin-1-yl}pyrimidine]
CC1CCCN1c1nc(-c2ccc(F)c(Cl)c2)cc(N2CCN(c3ncccc3F)CC2)n1 (centres unmarked) [Example 707, 4-(3-chloro-4-fluorophenyl)-6-(4-(3-fluoropyridin-2-yl)piperazin-1-yl]-2-(2-methylpyrrolidin-1-yl)pyrimidine]
Cc1cc(-c2cc(N3CCN(c4ncccc4F)CC3)nc(N3CCCC3C)n2)ccc1F (centres unmarked) [Example 708, 4-(4-fluoro-3-methylphenyl)-6-[4-(3-fluoropyridin-2-yl)piperazin-1-yl]-2-(2-methylpyrrolidin-1-yl)pyrimidine]
CC1CCCN1c1nc(-c2ccc(F)c(Cl)c2)cc(N2CCN(c3ncccc3C#N)CC2)n1 (centres unmarked) [Example 709, 2-{4-[6-(3-chloro-4-fluorophenyl)-2-(2-methylpyrrolidin-1-yl)pyrimidin-4-yl]piperazin-1-yl}nicotirionitrile]
Fc1ccc(-c2cc(N3CCN(c4ncccc4C(F)(F)F)CC3)nc(N3CCC3)n2)cc1Cl [Example 710, 2-azetidin-1-yl-4-(3-chloro-4-fluorophenyl)-6-{4-[3-(trifluoromethyl)pyridin-2-yl]piperazin-1-yl}pyrimidine]
CN(C)C(=O)[C@@H]1CCCN1c1nc(-c2ccc(F)c(Cl)c2)cc(N2CCN(c3ncccc3C(F)(F)F)CC2)n1 [Example 711, 1-(4-(3-chloro-4-fluorophenyl)-6-{4-[3-(trifluoromethyl)pyridin-2-yl]piperazin-1-yl}pyrimidin-2-yl)-N,N-dimethyl-L-prolinamide]
CN(C)C[C@@H]1CCCN1c1nc(-c2ccc(F)c(Cl)c2)cc(N2CCN(c3ncccc3C(F)(F)F)CC2)n1 [Example 712, 1-[(2S)-1-(4-(3-chloro-4-fluorophenyl)-6-{4-[3-(trifluoromethyl)pyridin-2-yl]piperazin-1-yl}pyrimidin-2-yl)pyrrolidin-2-yl]-N,N-dimethylmethanamine]
Fc1ccc(-c2cc(N3CCN(c4ncccc4Cl)CC3)nc(N3CCCC3)n2)cc1Cl [Example 713, 4-(3-chloro-4-fluorophenyl)-6-[4-(3-chloropyridin-2-yl)piperazin-1-yl]-2-pyrrolidin-1-ylpyrimidine]
CC1CCCN1c1nc(-c2ccc(F)c(Cl)c2)cc(N2CCN(c3ncccc3Cl)CC2)n1 (centres unmarked) [Example 714, 4-(3-chloro-4-fluorophenyl)-6-[4-(3-chloropyridin-2-yl)piperazin-1-yl]2-(2-methylpyrrolidin-1-yl)pyrimidine]
Fc1ccc(-c2cc(N3CCN(c4ncccc4Cl)CC3)nc(N3CCCCC3)n2)cc1Cl [Example 715, 4-(3-chloro-4-fluorophenyl)-6-[4-(3-chloropyridin-2-yl)piperazin-1-yl]-2-piperidin-1-ylpyrimidine]
Cc1cc(-c2cc(N3CCN(c4ncccc4C(F)(F)F)CC3)nc(N3CCN(C(C)C)CC3)n2)ccc1F [Example 716, 4-(4-fluoro-3-methylphenyl)-2-(4-isopropylpiperazin-1-yl)-6-{4-[3-(trifluoromethyl)pyridin-2-yl]piperazin-1-yl}pyrimidine]
Cc1cc(-c2cc(N3CCN(c4ncccc4Cl)CC3)nc(N3CCCCC3)n2)ccc1F [Example 717, 4-[4-(3-chloropyridin-2-yl)piperazin-1-yl]-6-(4-fluoro-3-methylphenyl)-2-piperidin-1-ylpyrimidine]
Cc1cc(-c2cc(N3CCN(c4ncccc4Cl)C[C@H]3C)nc(N3CCCC3)n2)ccc1F [Example 718, 4-[(2R)-4-(3-chloropyridin-2-yl)-2-methylpiperazin-1-yl]-6-(4-fluoro-3-methylphenyl)-2-pyrrolidin-1-ylpyrimidine]
Cc1cc(-c2cc(N3CCN(c4ncccc4Cl)C[C@H]3C)nc(N3CCCC3C)n2)ccc1F (stereo partly drawn) [Example 719, 4-[(2R)-4-(3-chloropyridin-2-yl)-2-methylpiperazin-1-yl]-6-(4-fluoro-3-methylphenyl)-2-(2-methylpyrrolidin-1-yl)pyrimidine]
Cc1cc(-c2cc(N3CCN(c4ncccc4Cl)C[C@H]3C)nc(N3CCCCC3)n2)ccc1F [Example 720, 4-[(2R)-4-(3-chloropyridin-2-yl)-2-methylpiperazin-1-yl]-6-(4-fluoro-3-methylphenyl)-2-piperidin-1-ylpyrimidine]
CCN(CC)c1nc(-c2ccc(F)c(C)c2)cc(N2CCN(c3ncccc3Cl)CC2)n1 [Example 721, 4-[4-(3-chloropyridin-2-yl)piperazin-1-yl]-N,N-diethyl-6-(4-fluoro-3-methylphenyl)pyrimidin-2-amine]
C[C@@H]1CN(c2ncccc2Cl)CCN1c1cc(-c2ccc(F)c(Cl)c2)nc(SCc2ccccc2)n1 [Example 722, 2-(benzylthio)-4-(3-chloro-4-fluorophenyl)-6-[(2R)-4-(3-chloropyridin-2-yl)-2-methylpiperazin-1-yl]pyrimidine]
C[C@@H]1CN(c2ncccc2Cl)CCN1c1cc(-c2ccc(F)c(Cl)c2)nc(S(=O)(=O)Cc2ccccc2)n1 [Example 723, 2-(benzylsulfonyl)-4-(3-chloro-4-fluorophenyl)-6-[(2R)-4-(3-chloropyridin-2-yl)-2-methylpiperazin-1-yl]pyrimidine]
CCN(CC)c1nc(-c2ccc(F)c(Cl)c2)cc(N2CCN(c3ncccc3Cl)CC2)n1 [Example 724, 4-(3-chloro-4-fluorophenyl)-6-[4-(3-chloropyridin-2-yl)piperazin-1-yl]-N,N-diethylpyrimidin-2-amine]
CC(C)N(C)c1nc(-c2ccc(F)c(Cl)c2)cc(N2CCN(c3ncccc3Cl)CC2)n1 [Example 725, 4-(3-chloro-4-fluorophenyl)-6-[4-(3-chloropyridin-2-yl)piperazin-1-yl]-N-isopropyl-N-methylpyrimidin-2-amine]
COC[C@@H]1CCCN1c1nc(-c2ccc(F)c(C)c2)cc(N2CCN(c3ncccc3Cl)CC2)n1 [Example 726]
COC[C@H]1CCCN1c1nc(-c2ccc(F)c(C)c2)cc(N2CCN(c3ncccc3Cl)C[C@H]2C)n1 [Example 728, 4-[(2R)-4-(3-chloropyridin-2-yl)-2-methylpiperazin-1-yl]-6-(4-fluoro-3-methylphenyl)-2-[(2R)-2-(methoxymethyl)pyrrolidin-1-yl]pyrimidine]
COC[C@@H]1CCCN1c1nc(-c2ccc(F)c(C)c2)cc(N2CCN(c3ncccc3Cl)C[C@H]2C)n1 [Example 729, 4-[(2R)-4-(3-chloropyridin-2-yl)-2-methylpiperazin-1-yl]-6-(4-fluoro-3-methylphenyl)-2-[(2S)-2-(methoxymethyl)pyrrolidin-1-yl]pyrimidine]
Cc1cc(-c2cc(N3CCN(c4ncccc4Cl)CC3)nc(N(C)C(C)C)n2)ccc1F [Example 730, 4-[4-(3-chloropyridin-2-yl)piperazin-1-yl]-6-(4-fluoro-3-methylphenyl)-N-isopropyl-N-methylpyrimidin-2-amine]
C[C@@H]1CN(c2ncccc2Cl)CCN1c1cc(-c2ccc(F)c(Cl)c2)nc(N2CCCC2)n1 [Example 731, 4-(3-chloro-4-fluorophenyl)-6-[(2R)-4-(3-chloropyridin-2-yl)-2-methylpiperazin-1-yl]-2-pyrrolidin-1-ylpyrimidine]
CC1CCCN1c1nc(-c2ccc(F)c(Cl)c2)cc(N2CCN(c3ncccc3Cl)C[C@H]2C)n1 (stereo partly drawn) [Example 732, 4-(3-chloro-4-fluorophenyl)-6-[(2R)-4-(3-chloropyridin-2-yl)-2-methylpiperazin-1-yl]-2-(2-methylpyrrolidin-1-yl)pyrimidine]
COC[C@H]1CCCN1c1nc(-c2ccc(F)c(Cl)c2)cc(N2CCN(c3ncccc3Cl)C[C@H]2C)n1 [Example 733, 4-(3-chloro-4-fluorophenyl)-6-[(2R)-4-(3-chloropyridin-2-yl)-2-methylpiperazin-1-yl]-2-[(2R)-2-(methoxymethyl)pyrrolidin-1-yl]pyrimidine]
C[C@@H]1CN(c2ncccc2Cl)CCN1c1cc(-c2ccc(F)c(Cl)c2)nc(N2CCCCC2)n1 [Example 734, 4-(3-chloro-4-fluorophenyl)-6-[(2R)-4-(3-chloropyridin-2-yl)-2-methylpiperazin-1-yl]-2-piperidin-1-ylpyrimidine]
COC[C@@H]1CCCN1c1nc(-c2ccc(F)c(Cl)c2)cc(N2CCN(c3ncccc3Cl)C[C@H]2C)n1 [Example 735, 4-(3-chloro-4-fluorophenyl)-6-[(2R)-4-(3-chloropyridin-2-yl)-2-methylpiperazin-1-yl]-2-[(2S)-2-(methoxymethyl)pyrrolidin-1-yl]pyrimidine]
Cc1cc(-c2cc(N3CCN(c4ncccc4C(F)(F)F)CC3)nc(N(C)C3CC3)n2)ccc1F [Example 736, N-cyclopropyl-4-(4-fluoro-3-methylphenyl)-N-methyl-6-{4-[3-(trifluoromethyl)pyridin-2-yl]piperazin-1-yl}pyrimidin-2-amine]
